The values below come from paper PMC12055039 (Organic & biomolecular chemistry, 2024).

Like-named read-outs stand apart in the source and are kept apart here.

The subject of data set [1] is T. brucei. The data set can be described thus: Antiparasitic screening against T. brucei. Conditions: read-out: T. brucei EC50; mean ± standard error, 3 biological replicates. The class given is cell-based.
The next data set deals with P. falciparum 3D7. The data set can be described thus: Antiparasitic screening against P. falciparum 3D7. Conditions: read-out: P. falciparum 3D7 EC50; mean ± standard error, 3 biological replicates. The class given is cell-based.
Data set [2] relates to L. amazonensis. The data set can be described thus: Antiparasitic screening against L. amazonensis. Conditions: read-out: L. amazonensis EC50; mean ± standard error, 3 biological replicates. The class given is cell-based.
Data set [3] deals with T. brucei. Conditions: read-out: EC50 (T. brucei); Phase III candidate for trypanosomiasis; cited from earlier work.
Data set [4] deals with L. amazonensis. The settings on record: read-out: L. amazonensis EC50; 6/5-spiroindimicins; ref 4b; cited from earlier work.
Data set [5] can be described thus: Cytotoxicity against HepG2 cells. The settings on record: human.

Consider `COC(=O)c1[nH]cc2c1[C@]1(CNc3ccc(Cl)cc31)c1[nH]c3ccc(Cl)cc3c1-2` (racemic) [Compound 3, spiroindimicin C], for which the concentration giving a half-maximal response (EC50) (as a rule, the concentration at which the effect is half-maximal) is 13 ± 0.98 µM in the data set on T. brucei [1], 7.1 ± 0.58 µM in the data set with P. falciparum 3D7 and more than 10 µM in the data set on L. amazonensis [2].

Regarding N-PMB spiroindimicin C [Compound 74], the EC50 is 1.2 ± 0.03 µM in the data set on T. brucei [1], 3.7 ± 0.35 µM in the data set with P. falciparum 3D7 and more than 10 µM with L. amazonensis [2].

For `COC(=O)c1[nH]cc2c1[C@]1(CN(C)c3ccc(Cl)cc31)c1[nH]c3ccc(Cl)cc3c1-2` (racemic) [Compound 2, spiroindimicin B], the EC50 worked out at 3 ± 0.23 µM in the data set with T. brucei [1], 3 ± 0.2 µM in the data set with P. falciparum 3D7 and 8 ± 0.49 µM with L. amazonensis [2].

As for spiroindimicin G [Compound 7], the EC50 in the data set with T. brucei [1] worked out at 0.65 ± 0.14 µM; with P. falciparum 3D7, 7.6 ± 0.47 µM; in the data set on L. amazonensis [2], 8.1 ± 0.5 µM.

Turning to `COC(=O)c1[nH]cc2c1[C@@]1(CN(C)c3ccc(Cl)cc31)c1[nH]c3ccccc3c1-2` (racemic) [Compound 5, spiroindimicin E], the EC50 with T. brucei [1] was found to be 4.4 ± 0.32 µM; in the data set with P. falciparum 3D7, 4.8 ± 0.51 µM; in the data set on L. amazonensis [2] it was 9.3 ± 1.7 µM.

Take `COC(=O)c1[nH]c(C(=O)OC)c2c1-c1c([nH]c3ccc(Cl)cc13)[C@@]21CN(C)c2ccc(Cl)cc21` (racemic) [Compound 4, spiroindimicin D]: the 50% effective concentration (EC50) in the data set with T. brucei [1] is 3.4 ± 0.21 µM; in the data set with P. falciparum 3D7, 5.6 ± 0.22 µM; in the data set on L. amazonensis [2] it was 7.7 ± 0.23 µM.

`CC1(C)OB(O)c2cc(NC(=O)c3ccc(F)cc3C(F)(F)F)ccc21` [acoziborole]: the EC50 with T. brucei [3] was 0.6 µM.

For the compound `COC(=O)c1[nH]cc2c1[C@@]1(CN(C)c3ccccc31)c1[nH]c3ccc(Cl)cc3c1-2` (racemic) [Compound 6, spiroindimicin F], the 50% effective concentration (EC50) with T. brucei [1] worked out at 4 ± 0.2 µM; with P. falciparum 3D7 it was 9 ± 0.97 µM; in the data set on L. amazonensis [2] it was 9.9 ± 1.2 µM.

On to `COC(=O)c1[nH]c(C(=O)OC)c2c1-c1c[nH]c3ccc(Cl)c(c13)[C@@]21C=Nc2ccc(Cl)cc21` [Compound 1, spiroindimicin A], for which the concentration giving a half-maximal response (EC50) with L. amazonensis [4] is 1.3 µM.

On to `C[C@H]1CCC/C=C/[C@@H]2C[C@H](O)C[C@H]2[C@H](O)/C=C/C(=O)O1` [brefeldin A], for which, in data set [5], the CC50 (usually the concentration that lowers cell viability or growth by half) is 0.064 ± 0.0045 µM.
